Test system: 282377-053-R-J1-PDC complex spheroid viability
Assay: Anticancer human tumor 282377-053-R-J1-PDC patient-derived colon adenocarcinoma cell line growth inhibition [RAS]
Settings: for IC50: curve of first compound; for viability, T/C: stronger effect = lower value
Procedure, shortened: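 Multi-cell-type spheroids: tumor cells plus HUVEC endothelial cells and mesenchymal stem cells. RAS-pathway inhibitors were combined with targeted agents, each dosed in half-log steps down from clinical Cmax, or from 10 microM when Cmax was unknown.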
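Further: spheroids exposed to agents for seven days before readout.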
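Wherever viability, T/C is given: luminescence viability as percent of DMSO vehicle control wells.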

C=CC(=O)N1CCN(c2nc(OCC3CCCN3C)nc3c(F)c(-c4nc(N)cc(C)c4C(F)(F)F)c(Cl)cc23)C(C)C1 (centres undefined) + CCn1c(-c2cccnc2C(C)OC)c2c3cc(ccc31)N1CCOC(CC(NC(=O)C(C(C)C)N(C)C(=O)C3(F)CCN(C(=O)C#CC(C)(C)N(C)C)CC3)C(=O)N3CCCC(N3)C(=O)OCC(C)(C)C2)C1
IC50 (second compound 0.000949 µM): > 1000 nM | IC50 (second compound 0.003 µM): > 1000 nM | IC50 (second compound 0.00949 µM): > 1000 nM | IC50 (second compound 0.03 µM): > 1000 nM | IC50 (second compound 0.0949 µM): > 1000 nM | IC50 (second compound 0.3 µM): > 1000 nM | viability, T/C (second compound 0.000949 µM, first compound 0.00316 µM): 90.6% | viability, T/C (second compound 0.000949 µM, first compound 0.01 µM): 110% | viability, T/C (second compound 0.000949 µM, first compound 0.0316 µM): 109% | viability, T/C (second compound 0.000949 µM, first compound 0.1 µM): 92.1% | viability, T/C (second compound 0.000949 µM, first compound 0.316 µM): 98% | viability, T/C (second compound 0.000949 µM, first compound 1 µM): 87.1% | viability, T/C (second compound 0.003 µM, first compound 0.00316 µM): 105% | viability, T/C (second compound 0.003 µM, first compound 0.01 µM): 131% | viability, T/C (second compound 0.003 µM, first compound 0.0316 µM): 86.9% | viability, T/C (second compound 0.003 µM, first compound 0.1 µM): 101% | viability, T/C (second compound 0.003 µM, first compound 0.316 µM): 81.2% | viability, T/C (second compound 0.003 µM, first compound 1 µM): 85.3% | viability, T/C (second compound 0.00949 µM, first compound 0.00316 µM): 96.2% | viability, T/C (second compound 0.00949 µM, first compound 0.01 µM): 92.7% | viability, T/C (second compound 0.00949 µM, first compound 0.0316 µM): 83.6% | viability, T/C (second compound 0.00949 µM, first compound 0.1 µM): 88.7% | viability, T/C (second compound 0.00949 µM, first compound 0.316 µM): 81.5% | viability, T/C (second compound 0.00949 µM, first compound 1 µM): 82.8% | viability, T/C (second compound 0.03 µM, first compound 0.00316 µM): 92.9% | viability, T/C (second compound 0.03 µM, first compound 0.01 µM): 97.5% | viability, T/C (second compound 0.03 µM, first compound 0.0316 µM): 86.2% | viability, T/C (second compound 0.03 µM, first compound 0.1 µM): 112% | viability, T/C (second compound 0.03 µM, first compound 0.316 µM): 89.9% | viability, T/C (second compound 0.03 µM, first compound 1 µM): 93.8% | viability, T/C (second compound 0.0949 µM, first compound 0.00316 µM): 90.5% | viability, T/C (second compound 0.0949 µM, first compound 0.01 µM): 104% | viability, T/C (second compound 0.0949 µM, first compound 0.0316 µM): 115% | viability, T/C (second compound 0.0949 µM, first compound 0.1 µM): 109% | viability, T/C (second compound 0.0949 µM, first compound 0.316 µM): 109% | viability, T/C (second compound 0.0949 µM, first compound 1 µM): 96.3% | viability, T/C (second compound 0.3 µM, first compound 0.00316 µM): 90.1% | viability, T/C (second compound 0.3 µM, first compound 0.01 µM): 92.1% | viability, T/C (second compound 0.3 µM, first compound 0.0316 µM): 97.5% | viability, T/C (second compound 0.3 µM, first compound 0.1 µM): 93.3% | viability, T/C (second compound 0.3 µM, first compound 0.316 µM): 113% | viability, T/C (second compound 0.3 µM, first compound 1 µM): 98.2%

CC1(C)CCC(Nc2ncc(C(F)(F)F)c(-c3c[nH]c4c(P(C)(C)=O)c(C#N)ccc34)n2)CN1 (centres undefined) + CCn1c(-c2cccnc2C(C)OC)c2c3cc(ccc31)N1CCOC(CC(NC(=O)C(C(C)C)N(C)C(=O)C3(F)CCN(C(=O)C#CC(C)(C)N(C)C)CC3)C(=O)N3CCCC(N3)C(=O)OCC(C)(C)C2)C1
IC50 (second compound 0.000949 µM): > 300 nM | IC50 (second compound 0.003 µM): > 300 nM | IC50 (second compound 0.00949 µM): > 300 nM | IC50 (second compound 0.03 µM): > 300 nM | IC50 (second compound 0.0949 µM): > 300 nM | IC50 (second compound 0.3 µM): > 300 nM | viability, T/C (second compound 0.000949 µM, first compound 0.000949 µM): 83.9% | viability, T/C (second compound 0.000949 µM, first compound 0.003 µM): 124% | viability, T/C (second compound 0.000949 µM, first compound 0.00949 µM): 115% | viability, T/C (second compound 0.000949 µM, first compound 0.03 µM): 90% | viability, T/C (second compound 0.000949 µM, first compound 0.0949 µM): 104% | viability, T/C (second compound 0.000949 µM, first compound 0.3 µM): 75.9% | viability, T/C (second compound 0.003 µM, first compound 0.000949 µM): 94.1% | viability, T/C (second compound 0.003 µM, first compound 0.003 µM): 112% | viability, T/C (second compound 0.003 µM, first compound 0.00949 µM): 140% | viability, T/C (second compound 0.003 µM, first compound 0.03 µM): 88.6% | viability, T/C (second compound 0.003 µM, first compound 0.0949 µM): 89.5% | viability, T/C (second compound 0.003 µM, first compound 0.3 µM): 89.3% | viability, T/C (second compound 0.00949 µM, first compound 0.000949 µM): 102% | viability, T/C (second compound 0.00949 µM, first compound 0.003 µM): 105% | viability, T/C (second compound 0.00949 µM, first compound 0.00949 µM): 134% | viability, T/C (second compound 0.00949 µM, first compound 0.03 µM): 97% | viability, T/C (second compound 0.00949 µM, first compound 0.0949 µM): 80.8% | viability, T/C (second compound 0.00949 µM, first compound 0.3 µM): 92.9% | viability, T/C (second compound 0.03 µM, first compound 0.000949 µM): 89.3% | viability, T/C (second compound 0.03 µM, first compound 0.003 µM): 118% | viability, T/C (second compound 0.03 µM, first compound 0.00949 µM): 98.2% | viability, T/C (second compound 0.03 µM, first compound 0.03 µM): 96.3% | viability, T/C (second compound 0.03 µM, first compound 0.0949 µM): 91.2% | viability, T/C (second compound 0.03 µM, first compound 0.3 µM): 96.9% | viability, T/C (second compound 0.0949 µM, first compound 0.000949 µM): 84.5% | viability, T/C (second compound 0.0949 µM, first compound 0.003 µM): 135% | viability, T/C (second compound 0.0949 µM, first compound 0.00949 µM): 131% | viability, T/C (second compound 0.0949 µM, first compound 0.03 µM): 77% | viability, T/C (second compound 0.0949 µM, first compound 0.0949 µM): 75.1% | viability, T/C (second compound 0.0949 µM, first compound 0.3 µM): 67.9% | viability, T/C (second compound 0.3 µM, first compound 0.000949 µM): 92.6% | viability, T/C (second compound 0.3 µM, first compound 0.003 µM): 107% | viability, T/C (second compound 0.3 µM, first compound 0.00949 µM): 110% | viability, T/C (second compound 0.3 µM, first compound 0.03 µM): 84.5% | viability, T/C (second compound 0.3 µM, first compound 0.0949 µM): 56.9% | viability, T/C (second compound 0.3 µM, first compound 0.3 µM): 53.6%
